# Values quoted from earlier work in patent US20190209596A1, “METHODS OF TREATING DISEASES” (Boehringer Ingelheim International GmbH, priority 2015, published 2019).
# Conditions: metformin on its own, in the diabetic
smiles,measurement,value
CN(C)C(=N)N=C(N)N [metformin],average improvement in the HbA1c value,1.0-1.5%
